From publication PMC9154192 (PLoS Biology, 2022)
In brackets after ≈: the same amount, converted by molar mass.

Experiments:
[1] = system: clinically isolated MDR, XDR, and TDR M. tuberculosis strains; assay: microbe, parasite or virus in culture; format: cell-based; details: Mycobacterium tuberculosis
M. abscessus = assay: microbe, parasite or virus in culture; format: cell-based, Mycobacterium abscessus; details: Mycobacteroides abscessus
M. arupense = assay: microbe, parasite or virus in culture; format: cell-based, Mycobacterium arupense; details: Mycolicibacter arupensis
M. aubagnense = assay: microbe, parasite or virus in culture; format: cell-based, Mycobacterium aubagnense; details: Mycolicibacterium aubagnense
M. bolletii = assay: microbe, parasite or virus in culture; format: cell-based, Mycobacterium bolletii; details: Mycobacteroides abscessus
M. bovis = assay: microbe, parasite or virus in culture; format: cell-based; details: Mycobacterium tuberculosis variant bovis
M. chitae = assay: microbe, parasite or virus in culture; format: cell-based, Mycobacterium chitae; details: Mycolicibacterium chitae
M. conceptionense = assay: microbe, parasite or virus in culture; format: cell-based, Mycobacterium conceptionense; details: Mycolicibacterium senegalense
M. fortuitum = assay: microbe, parasite or virus in culture; format: cell-based, Mycobacterium fortuitum; details: Mycolicibacterium fortuitum
M. gilvum = assay: microbe, parasite or virus in culture; format: cell-based, Mycobacterium gilvum; details: Mycolicibacterium gilvum
M. goodie = assay: microbe, parasite or virus in culture; format: cell-based; details: Mycobacterium
M. gordonae = assay: microbe, parasite or virus in culture; format: cell-based; details: Mycobacterium gordonae
M. heraklionease = assay: microbe, parasite or virus in culture; format: cell-based; details: Mycobacterium
M. intracellulare = assay: microbe, parasite or virus in culture; format: cell-based; details: Mycobacterium intracellulare
M. kansasii = assay: microbe, parasite or virus in culture; format: cell-based; details: Mycobacterium kansasii
M. kyorinense = assay: microbe, parasite or virus in culture; format: cell-based; details: Mycobacterium kyorinense
M. marinum = assay: microbe, parasite or virus in culture; format: cell-based; details: Mycobacterium marinum
M. marseiliense = assay: microbe, parasite or virus in culture; format: cell-based; details: Mycobacterium
M. massiliense = assay: microbe, parasite or virus in culture; format: cell-based, Mycobacterium massiliense; details: Mycobacteroides abscessus
M. neoaurum = assay: microbe, parasite or virus in culture; format: cell-based, Mycobacterium neoaurum; details: Mycolicibacterium neoaurum
M. peregrinum = assay: microbe, parasite or virus in culture; format: cell-based, Mycobacterium peregrinum; details: Mycolicibacterium peregrinum
M. phlei = assay: microbe, parasite or virus in culture; format: cell-based, Mycobacterium phlei; details: Mycolicibacterium phlei
M. phocaicum = assay: microbe, parasite or virus in culture; format: cell-based, Mycobacterium phocaicum; details: Mycolicibacterium phocaicum
M. smegmatis = assay: microbe, parasite or virus in culture; format: cell-based, Mycobacterium smegmatis; details: Mycolicibacterium smegmatis
M. szulgai = assay: microbe, parasite or virus in culture; format: cell-based; details: Mycobacterium szulgai
M. xenopi = assay: microbe, parasite or virus in culture; format: cell-based; details: Mycobacterium xenopi
Citrobacter freundii = assay: Broth dilution MIC (CLSI); format: cell-based; details: read-out: MIC
Source text: (§1) Bacteria (Acinetobacter baumannii NCCP 14782, Citrobacter freundii NCCP 14766, Enterobacter aerogenes NCCP 14761, Escherichia coli NCCP 14762, Escherichia coli O157 NCCP 14541, Klebsiella pneumoniae NCCP 14764, Proteus mirabilis NCCP 14763, Proteus vulgaris NCCP 14765, Pseudomonas aeruginosa NCCP 14781, Salmonella Enteritidis NCCP 14771, Salmonella Paratyphi A NCCP 14759, Salmonella Typhimurium NCCP 16207, Serratia marcescens NCCP 14770, Shigella boydii NCCP 14745, Shigella dysenteriae NCCP 14746, Shigella flexneri NCCP 14744, Shigella sonnei NCCP 14773, Bacillus subtilis NCCP 11101, Corynebacterium diphtheriae NCCP 10353, Staphylococcus aureus MSSA NCCP 14780, Staphylococcus aureus MRSA NCCP 14769, Staphylococcus epidermidis NCCP 14768, Streptococcus pneumoniae NCCP 14774) and fungi (Aspergillus fumigatus NCCP 22454, Candida albicans NCCP 32557, Cryptococcus neoformans NCCP 32559, Microsporum canis NCCP 22454, Rhizopus oryzae NCCP 22458, Saccharomyces cerevisiae NCCP 32558, Trichophyton rubrum NCCP 22456) strains were obtained from the National Culture Collection for Pathogens (NCCP) (Chungbuk, Korea). The MIC of each agent was determined following the Clinical and Laboratory Standards Institute (CLSI).[40]

[2] = system: Corynebacterium diphtheriae; assay: Broth dilution MIC (CLSI); format: cell-based; details: read-out: MIC
Source text: as §1

Cryptococcus neoformans = assay: Broth dilution MIC (CLSI); format: cell-based; details: read-out: MIC
Source text: as §1

Enterobacter aerogenes = assay: Broth dilution MIC (CLSI); format: cell-based; details: Klebsiella aerogenes; Enterobacter aerogenes; read-out: MIC
Source text: as §1

Microsporum canis = assay: Broth dilution MIC (CLSI); format: cell-based; details: read-out: MIC
Source text: as §1

Proteus vulgaris = assay: Broth dilution MIC (CLSI); format: cell-based; details: read-out: MIC
Source text: as §1

Pseudomonas aeruginosa = assay: Broth dilution MIC (CLSI); format: cell-based; details: read-out: MIC
Source text: as §1

Rhizopus oryzae = assay: Broth dilution MIC (CLSI); format: cell-based; details: Rhizopus arrhizus; Rhizopus oryzae; read-out: MIC
Source text: as §1

Salmonella Enteritidis = assay: Broth dilution MIC (CLSI); format: cell-based; details: Salmonella enterica; Salmonella Enteritidis; read-out: MIC
Source text: as §1

Salmonella Paratyphi A = assay: Broth dilution MIC (CLSI); format: cell-based; details: Salmonella enterica; Salmonella Paratyphi A; read-out: MIC
Source text: as §1

Salmonella Typhimurium = assay: Broth dilution MIC (CLSI); format: cell-based; details: Salmonella enterica; Salmonella Typhimurium; read-out: MIC
Source text: as §1

Shigella boydii = assay: Broth dilution MIC (CLSI); format: cell-based; details: read-out: MIC
Source text: as §1

Shigella sonnei = assay: Broth dilution MIC (CLSI); format: cell-based; details: read-out: MIC
Source text: as §1

[3] = system: Staphylococcus aureus, MRSA; assay: Broth dilution MIC (CLSI); format: cell-based; details: read-out: MIC
Source text: as §1

[4] = system: Staphylococcus aureus, MSSA; assay: Broth dilution MIC (CLSI); format: cell-based; details: read-out: MIC
Source text: as §1

`COC(=O)[C@@H]1CCC(=O)N1Cc1cc2ccc(OCc3ccccc3)cc2c2cc(OC)c(OC)cc12` [PP3S, Methyl (S)-1-{[3-(Benzyloxy)-6,7-dimethoxy-9-phenanthryl]methyl}-5-oxopyrrolidine-2-carboxylate] showed an MIC ([1]; TDR-1) of 0.8 µg/mL (≈ 1.6 µM), an MIC ([1]; TDR-2) of 1.6 µg/mL (≈ 3.2 µM) and an MIC ([1]; TDR-3) of 0.8 µg/mL (≈ 1.6 µM). It also gave an MIC (M. abscessus) of over 100 µg/mL, an MIC (M. arupense) of over 100 µg/mL and an MIC (M. aubagnense) of over 100 µg/mL. The MIC (M. bolletii) was over 100 µg/mL, the MIC (M. bovis) was 3.12 µg/mL (≈ 6.25 µM) and the MIC (M. chitae) was over 100 µg/mL. The MIC (M. conceptionense) was over 100 µg/mL, the MIC (M. fortuitum) was over 100 µg/mL and the MIC (M. gilvum) was over 100 µg/mL. It also gave an MIC (M. goodie) of over 100 µg/mL, an MIC (M. gordonae) of over 100 µg/mL and an MIC (M. heraklionease) of over 100 µg/mL. The MIC (M. intracellulare) was over 100 µg/mL, the MIC (M. kansasii) was over 100 µg/mL and the MIC (M. kyorinense) was over 100 µg/mL. For the same compound, the MIC (M. marinum) was over 100 µg/mL, the MIC (M. marseiliense) was over 100 µg/mL and the MIC (M. massiliense) was over 100 µg/mL. It also gave an MIC (M. neoaurum) of over 100 µg/mL, an MIC (M. peregrinum) of over 100 µg/mL and an MIC (M. phlei) of over 100 µg/mL. For the same compound, the MIC (M. phocaicum) was over 100 µg/mL, the MIC (M. smegmatis) was over 100 µg/mL and the MIC (M. szulgai) was over 100 µg/mL. For the same compound, the MIC (M. xenopi) was over 100 µg/mL, the MIC (Citrobacter freundii) was over 100 µg/mL and the MIC [2] was over 100 µg/mL. The MIC (Cryptococcus neoformans) was over 100 µg/mL, the MIC (Enterobacter aerogenes) was over 100 µg/mL and the MIC (Microsporum canis) was over 100 µg/mL. For the same compound, the MIC (Proteus vulgaris) was over 100 µg/mL, the MIC (Pseudomonas aeruginosa) was over 100 µg/mL and the MIC (Rhizopus oryzae) was over 100 µg/mL. It also gave an MIC (Salmonella Enteritidis) of over 100 µg/mL, an MIC (Salmonella Paratyphi A) of over 100 µg/mL and an MIC (Salmonella Typhimurium) of over 100 µg/mL. The MIC (Shigella boydii) was over 100 µg/mL, the MIC (Shigella sonnei) was over 100 µg/mL and the MIC [3] was over 100 µg/mL. The MIC [4] was over 100 µg/mL.
